According to patent US10583206B2, “Radioactive probe for detecting hydrogen sulfide” (KYUNGPOOK NATIONAL UNIVERSITY INDUSTRY-ACADEMIC COOPERATION …, priority 2015, dated 2020):
Where two headings read alike, the source gives them in different places.

Columns and labels:
[1] = Hydrogen sulfide selectivity test: decomplexation by H2O2; type: physicochemical; conditions: H2O2 (100 µM); 37° C. for 15 minutes
Description: (§1) In addition to hydrogen sulfide, many different anions, radicals, etc. exist in the body. Therefore, to examine selective reactivity of the ^64Cu-labeled complex compound according to the present disclosure for sulfide ions, the following experiment was performed.
(§2) About 45 μCi-55 μCi of the ^64Cu-labeled complex compound (250 μL of triple distilled water) was mixed with 100 μM of various anion solutions (250 μL of triple distilled water) including biothiol, and stirred at 37° C. for 15 minutes.
(§3) Formation of copper sulfide (^64CuS) was quantified by using a radio-TLC scanner.
(§4) Various biothiol or salt solutions were prepared by dissolving the compounds in triple distilled water.
(§5) In Table, concentrations of all biothiols and other competitive materials are 100 μM. Further, specific concentrations of biothiols, anions, and oxidants used in Table are as follows: [L-Cys (1 mM); L-Hcys (10 mM); GSH (10 mM); DL-dithiothretitol (DTT, 100 μM); L-ascorbic acid (L-AsA, 10 mM); 2-mercaptoethanol (2-ME, 10 mM); NaCl (10 mm); KI (1 mM); Na2S2O3 (1 mM); Na2S2O5 (1 mM); NaOAc (1 mM); H2O2 ([…]); NaClO4 (100 μM); NaHCO3 (100 μM); NaNO2 ([…]); NaN3 (100 μM); ATB 337 (100 μM); diallyl trisulphide (100 μM)].

[2] = Hydrogen sulfide selectivity test: decomplexation by NaHCO3; type: physicochemical; conditions: NaHCO3 (100 μM); 37° C. for 15 minutes
Description: as §1, §2, §3, §4, §5

[3] = Test of hydrogen sulfide detection sensitivity (% decomplexation with NaHS, radio-TLC); type: physicochemical; conditions: for % decomplexation: 37° C. for 15 minutes
Description: To measure hydrogen sulfide detection sensitivity of the ^64Cu-labeled complex compound according to the present disclosure, the following experiment was performed.
About 45 μCi-55 μCi of ^64Cu-labeled complex compound (250 μL of triple distilled water) was mixed with various concentrations of NaHS solution (250 µL of triple distilled water), and stirred at 37° C. for 15 minutes (a total volume used in the reaction was equally 500 μL). After completion of the reaction, the resulting products were strongly stirred to mix appropriately.
Formation of copper sulfide (^64CuS) was confirmed by quantification of % decomplexation by using a radio-TLC scanner, and results are shown in the following Tables 2 and 3.

[4] = Hydrogen sulfide selectivity test: decomplexation by NaClO4; type: physicochemical; conditions: NaClO4 (100 μM); 37° C. for 15 minutes
Description: as §1, §2, §3, §4, §5

[5] = Hydrogen sulfide selectivity test: decomplexation by ATB 337; type: physicochemical; conditions: ATB 337 (100 μM); 37° C. for 15 minutes
Description: as §1, §2, §3, §4, §5

[6] = Hydrogen sulfide selectivity test: decomplexation by NaOAc; type: physicochemical; conditions: 100 μM or (1 mM), 37° C. for 15 minutes
Description: as §1, §2, §3, §4, §5

[7] = Hydrogen sulfide selectivity test: decomplexation by Kl; type: physicochemical; conditions: 100 μM or KI (1 mM), 37° C. for 15 minutes
Description: as §1, §2, §3, §4, §5

Paw inflammation model = type: in vivo, Balb/c or ICR mice
Description: (1) Paw Pain Inflammation Model
A small amount of CFA (complete Freund's adjuvant) or formalin was injected into only one paw (right) of the hind paws of Balb/c or ICR mice to establish inflammation models. 1 day after injection of the inflammation inducer, the mice were used in imaging or other in vivo experiments.
It is a known fact that inflamed sites show high concentrations of hydrogen sulfide.
Nuclear medicine imaging was measured by using an Inveon PET/CT system of Siemens Healthcare, and optical imaging was measured by using IVIS spectrum CT equipment. Cherenkov radiation emitted from ^64Cu was measured by using a highly sensitive CCD (charge-coupled device) camera.
Imaging was measured for 1 minute to 5 minutes, and a radiation dose was about 50 μCi to 2000 μCi, and photographs were variously taken as needed, such as immediately after first injection, at 1 hour, 4 hours, and 24 hours later.

[8] = Hydrogen sulfide selectivity test: decomplexation by NaNO2; type: physicochemical; conditions: NaNO2 (100 µM); 37° C. for 15 minutes
Description: as §1, §2, §3, §4, §5

[9] = Hydrogen sulfide selectivity test: decomplexation by L-AsA; type: physicochemical; conditions: L-ascorbic acid; 100 μM or (L-AsA, 10 mM); 37° C. for 15 minutes
Description: as §1, §2, §3, §4, §5

[10] = Hydrogen sulfide selectivity test: decomplexation by Hcys; type: physicochemical; conditions: 100 μM or L-Hcys (10 mM), 37° C. for 15 minutes
Description: as §1, §2, §3, §4, §5

[11] = Hydrogen sulfide selectivity test: decomplexation by Cys; type: physicochemical; conditions: 100 μM or L-Cys (1 mM), 37° C. for 15 minutes
Description: as §1, §2, §3, §4, §5

[12] = test system: Myocardial infarction model; assay: Imaging study in myocardial infarction model (PET); type: in vivo, Sprague-Dawley rats
Source text: (2) Myocardial Infarction Model
A myocardial infarction model was established by using Sprague-Dawley rats (12-week-old or older, about 250 g). 2 days later after induction of myocardial infarction by occlusion of the coronary arteries in the heart, the rats were used in imaging tests. It is a known fact that myocardial infarction sites show high concentrations of hydrogen sulfide.
It is known that myocardial infarction sites show high concentrations of hydrogen sulfide. Thus, after induction of myocardial infarction by coronary artery occlusion in rats, 50 μCi-900 μCi of the ^64Cu-labeled complex compound was injected via the tails of the rats, and uptake in the myocardial infarction site was examined over time by PET imaging.
36 hours after establishment of the myocardial infarction model, 730 μCi of the radioisotope-labeled complex compound of the present disclosure was injected and nuclear medicine imaging was performed. 2 days later, […] of FDG was injected into the same rat, and then FDG-PET images were obtained. Results are shown in FIGS. 15 to 17 (in the nuclear medicine imaging, the upper image represents a transverse image, and the lower image represents a coronal image).

[13] = Hydrogen sulfide selectivity test: decomplexation by DTT; type: physicochemical; conditions: DL-dithiothretitol (DTT, 100 μM); 37° C. for 15 minutes
Description: as §1, §2, §3, §4, §5

Pancreatitis model = assay: Imaging study in pancreatitis model; type: in vivo, Balb/c mouse; conditions: optical images; PET images after excision of tissues
Description: Caerulein (50 μg/kg) was intraperitoneally injected into Balb/c mouse seven times at hourly intervals to prepare a pancreatitis model.
Optical images were obtained after injecting each of the ^64Cu-labeled complex compounds of Example 1 and Example 20 into the prepared rat models having pancreatitis, and PET images were obtained after excision of tissues thereof.

| Structure (SMILES) | Decomplexation [%] [1] | Decomplexation [%] [2] | % decomplexation ([3]; NaHS 0 μM) | % decomplexation ([3]; NaHS 1 μM) | % decomplexation ([3]; NaHS 10 μM) | % decomplexation ([3]; NaHS 15 μM) | % decomplexation ([3]; NaHS 20 μM) | % decomplexation ([3]; NaHS 50 μM) | % decomplexation ([3]; NaHS 100 μM) | Decomplexation [%] [4] | Decomplexation [%] [5] | Decomplexation [%] [6] | Decomplexation [%] [7] | Decomplexation [%] [8] | Decomplexation [%] [9] | Decomplexation [%] [10] | Decomplexation [%] [11] | Decomplexation [%] [13] | uptake in the pancreas (Pancreatitis model) | other results |
| --- | --- | --- | --- | --- | --- | --- | --- | --- | --- | --- | --- | --- | --- | --- | --- | --- | --- | --- | --- | --- |
| C1C[N]2CC[N]3CC[N]4CC[N]1[64Cu]243 [Example 1, ^64Cu-labeled cyclen] | 0.5 ± 0.4% | 0.6 ± 0.3% | 0% | 3% | 11% | 63% | 95% | 100% | 100% | 0.6 ± 0.2% | 0.7 ± 0.4% | 0.6 ± 0.1% | 0.7 ± 0.2% | 0.6 ± 0.0% | 0.5 ± 0.1% | 1.4 ± 0.4% | 0.5 ± 0.1% | 0.6 ± 0.4% | high uptakes | sensitivity for hydrogen sulfide (lowest detectable concentration), in words ([3]; comparison among tested complexes): most excellent sensitivity for hydrogen sulfide; retention time in the animal models (Paw inflammation model; ICR and Balb/c, mouse, in vivo): ≥ 24 h; uptake in inflamed paw versus opposite paw (Paw inflammation model; PET imaging): higher uptake in the inflamed right paw than in the opposite paw; uptake in the CFA-induced inflamed site (Paw inflammation model; optical imaging): increased uptake; uptake in the myocardial infarction site ([12]; image taken at 24 hours after injection): high uptake was detected in the myocardial infarction site |
| C1C[N]2CC[N]3CC[N]1[64Cu]23 [Example 20, ^64Cu-labeled TACN] | 0.8 ± 0.3% | 0.6 ± 0.4% | 0% | 0% | 9% | 11% | 13.5% | 24.6% | 54.4% | 0.4 ± 0.1% | 0.7 ± 0.2% | 0.3 ± 0.0% | 0.4 ± 0.2% | 0.4 ± 0.0% | 0.8 ± 0.5% | 1.1 ± 0.5% | 0.8 ± 0.3% | 0.9 ± 0.1% | high uptakes | detection of the inflamed site immediately after injection (Paw inflammation model; imaging immediately after injection): detected in imaging immediately after injection; uptake in inflamed paw versus opposite paw (Paw inflammation model; imaging performed after 1 hour, also PET imaging): higher uptake; uptake / visualisation of the myocardial infarction site ([12]; PET imaging after injection): the myocardial infarction site was clearly observed |
